Results taken from patent publication US20230165865A1, “HETEROARYLDIHYDROPYRIMIDINE DERIVATIVES AND METHODS OF TREATING HEPATITIS B INFECTIONS” (Janssen Pharmaceutica NV, priority 2018, published 2023).
Where two headings read alike, the source gives them in different places.

How the values were obtained:
HBV = assay: Anti-viral assay in HepG2.2.15 cells: anti-HBV activity, HBV DNA in culture medium by qPCR; format: cell-based; details: HepG2.2.15 cells, 6 days treatment, HBV DNA by qPCR, read-out: EC50
Method: (§1) HepG2.2.15 (the HepG2.2.15 cell line can be produced by transfection of the HepG2 cell line as described in Sells, Chen, and Acs 1987 (Proc. Natl. Acad. Sci. USA 84: 1005-1009), and the HepG2 cell line is available from ATCC® under number HB-8065™)
(§2) HepG2.2.15 cells were plated into 96-well plate in 2% FBS culture medium at the density of 40,000 cells/well and 5,000cells/well for HBV inhibitory activity and cytotoxicity determination, respectively. After incubation at 37° C., 5% CO2 overnight, cells were treated with medium containing compounds for 6 days with medium and compounds refreshed after 3 days of treatment. Each compound was tested in a 1:3 serial dilutions at 8 different concentrations in triplicate. The highest concentration of the compounds was 10 uM or 1 uM for anti-HBV activity assay and 100 uM for cytotoxicity determination.
The change of HBV DNA level induced by the compounds was assessed by quantitative real-time polymerase chain reaction (qPCR). Briefly, the HBV DNA in the culture medium was extracted using QIAamp 96 DNA Blood Kit according to the manual and then quantified by real-time PCR assay using the primers and probe in the table 1 below.
(§3) EC50 and CC50 values are calculated by the […] PRISM software.

HepG2.2.15 cells = assay: Cytotoxicity determination in HepG2.2.15 cells (CCK-8 assay); format: cell-based; details: 6 days treatment, CCK-8, highest concentration 100 uM
Method: as §1, §2
(§4) Cell viability was determined by CCK-8 assay. After 6 days of compounds treatment, 20 μl CCK-8 reagents were added to each well of cytotoxicity assay plates. Cell plates were incubated at 37° C., 5% CO2 for 2.5 h. The absorbance at 450 nm wavelength and the absorbance at 630 nm wavelength as reference was measured.
as §3

[1] = as above; format: cell-based; details: human, 6 days treatment, CCK-8, highest concentration 100 uM
Method: as §1, §2, §4, §3

[2] = Pharmacokinetic and tissue distribution study via intravenous and oral administration in male C57BL/6 mice; format: in vivo
Method: Male C57BL/6 mice with a weight range of 20-25 g (Hua Fu Kang, China) were used. Animals were fasted overnight and free access to food 4 hours after dosing.
Test compound (correction factor: 1.00) was dissolved in a 20% hydroxypropyl-β-cyclodextrin (HP-β-CD) at a final concentration of 1 mg/ml for the intravenous (IV) formulation and at final concentrations of 0.5 mg/ml for the oral (PO) formulation. The intravenous formulation was dosed at 2 ml/kg to obtain a dose of 2 mg/kg. The oral formulations were dosed at 10 ml/kg to obtain final doses of 5 mg/kg.
Blood samples were taken at 7 and 20 min, 1, 2, 4, 8 and 24 h after intravenous dose administration. Blood and liver samples were taken at 30 min, 1, 2, 4, 8, 12 and 24 h after oral dose administration.
Approximately 0.020 mL blood will be collected into BD blood collection tubes containing K3-EDTA at each time point. Samples were placed immediately on melting ice and plasma was obtained following centrifugation at 4° C. for 5 minutes at approximately 4000×g. Plasma samples were adjusted to pH 3-4 by phosphoric acid and stored at −75±15° C. prior to analysis. The whole process was completed within 1 hour.
Liver samples were collected at adopted time point, and the vial containing the tissues sample was snap-frozen in liquid nitrogen right away and kept at −75±15° C. prior to analysis. All liver samples were weighed and homogenized with phosphoric acid solution (pH to 3-4) by liver weight (g) to phosphoric acid solution volume (mL) ratio 1:4 before analysis.
Plasma and liver samples were analyzed using LC-MS/MS methods. The lower limit of quantification (LLOQ) for plasma was 1.0 ng/ml and for liver was 2.5 ng/g. A non-compartmental analysis using the “Linear up log down” rule was used for all data. A limited pharmacokinetic analysis was performed using Phoenix™ Professional (Version 6.1).

human hepatocytes = assay: Metabolic stability of test compound in human hepatocyte cell; format: in vitro ADME; details: human hepatocytes
Method: • 1. The cryopreserved human hepatocytes cells were thawed in 37° C. water bath and diluted with pre-warmed incubation medium to a working cell density of 1×10^6 viable cells/mL. • 2. The 198 μL pre-warmed hepatocyte suspensions were spiked with 2 μL of 100 μM compound or reference compound(Verapamil) at a final concentration of 1.0 μM in a 96-well plate. The plate was incubated at 37° C., 900 rpm. All incubations will be performed in singlet. • 3. 25 μL aliquots of well contents were collected at time points of 0, 15, 30, 60, 90 and 120 minutes. The reactions were stopped by the addition of 6-fold volumes of cold acetonitrile with internal standards. • 4. After centrifugation for 25 minutes at 3,220 g. Aliquot of 100 μL of the supernatant was mixed with 100 μL of ultra-pure H2O and then used for LC-MS/MS analysis.
All calculations were carried out using Microsoft Excel. Peak areas were determined from extracted ion chromatograms. Determine the in vitro half-life (t1/2) of parent compound by regression analysis of the percent parent disappearance vs. time curve.
The in vitro half-life (in vitro t1/2) is determined from the slope value k:
Conversion of the in vitro t1/2(in min) into the in vitro intrinsic clearance (in vitro CLint, in μL/min/10^6 cells) is done using the following equation:
V=incubation volume (0.2 mL);
N=number of hepatocytes per well (0.2×10^6 cells).
Conversion of the in vitro t1/2(in min) into the scale-up intrinsic clearance (CLint(liver), in mL/min/kg) was done using the following equation:
CLint(liver)=kV/N×scaling factor

[3] = Hepatitis B virus, HepG2.2.15, 144 h
[4] = mice plasma, IV, nominal 2 mg/kg

| Compound | EC50 (HBV) [µM] | CC50 (HepG2.2.15 cells) [µM] | other results |
| --- | --- | --- | --- |
| CCOC(=O)C1=C(CN2CCN3C(=S)N(CC(C)(C)C(=O)O)CC3C2)NC(c2nccs2)=N[C@H]1c1cccc(F)c1C (single isomer, unassigned) [Compound 1B] | 0.043 | 22.4 | – |
| COC(=O)C1=C(CN2CCN3C(=S)N(CC(C)(C)C(=O)O)CC3C2)NC(c2nccs2)=NC1c1ccc(F)cc1Cl (single isomer, unassigned) [Compound 4A, 3-(7-((6-(2-chloro-4-fluorophenyl)-5-(methoxycarbonyl)-2-(thiazol-2-yl)-3,6-dihydropyrimidin-4-yl)methyl)-3-thioxohexahydroimidazo[1,5-a]pyrazin-2(3H)-yl)-2,2-dimethylpropanoic acid] | 0.049 | 52.8 | – |
| CCOC(=O)C1=C(CN2CCN3C(=S)N(CC4(C(=O)O)CC4)CC3C2)NC(c2nccs2)=N[C@H]1c1cccc(F)c1C (single isomer, unassigned) [Compound 9B] | 0.0007 | 14.6 | – |
| CCOC(=O)C1=C(CN2CCN3C(=S)N([C@@H]4CC[C@H](C(=O)O)C4)CC3C2)NC(c2nccs2)=N[C@H]1c1cccc(F)c1C (single isomer, unassigned) [Compound 24B] | 0.001 | 9.6 | – |
| CCOC(=O)C1=C(CN2CCN3C(=S)N([C@H]4CC[C@@H](C(=O)O)C4)CC3C2)NC(c2nccs2)=N[C@H]1c1cccc(F)c1C (single isomer, unassigned) [Compound 24D] | 0.035 | 9.4 | – |
| CCOC(=O)C1=C(CN2CCN3C(=S)N(CC(C)C(=O)O)C[C@@H]3C2)NC(c2nccs2)=N[C@H]1c1cccc(F)c1C (single isomer, unassigned) [Compound 27B] | 0.0026 | 25.3 | – |
| CCOC(=O)C1=C(CN2CCN3C(=S)N(C[C@@H](C)C(=O)O)C[C@@H]3C2)NC(c2ncoc2C)=NC1c1cccc(F)c1C (single isomer, unassigned) [Compound 32B, 3-(7-((5-(Ethoxycarbonyl)-6-(3-fluoro-2-methylphenyl)-2-(5-methyloxazol-4-yl)-3,6-dihydropyrimidin-4-yl)methyl)-3-thioxohexahydroimidazo[1,5-a]pyrazin-2(3H)-yl)-2-methylpropanoic acid] | 0.0274 | 42.5 | – |
| CCOC(=O)C1=C(CN2CCN3C(=S)N(C)C[C@@H]3[C@H]2C(=O)O)NC(c2nccs2)=N[C@H]1c1cccc(F)c1C (single isomer, unassigned) [Compound 35B] | 0.0011 | 46.6 | – |
| CCOC(=O)C1=C(CN2CCN3C(=S)N(CC(C)(C)C(=O)O)CC3C2)NC(c2nccs2)=NC1c1ccc(F)c(F)c1Cl (stereo not shown) [Compound 14, 3-(7-((6-(2-Chloro-3,4-difluorophenyl)-5-(ethoxycarbonyl)-2-(thiazol-2-yl)-3,6-dihydropyrimidin-4-yl)methyl)-3-thioxohexahydroimidazo[1,5-a]pyrazin-2(3H)-yl)-2,2-dimethylpropanoic acid] | – | – | EC50 (HBV; [3]): 0.0059 µM; CC50 at 6 days [1]: 10.6 µM |
| CCOC(=O)C1=C(CN2CCN3C(=S)N(CC(CC)C(=O)O)CC3C2)NC(c2nccs2)=N[C@H]1c1cccc(F)c1C (stereo partly drawn) [Compound 17, 2-((7-(((S)-5-(ethoxycarbonyl)-6-(3-fluoro-2-methylphenyl)-2-(thiazol-2-yl)-3,6-dihydropyrimidin-4-yl)methyl)-3-thioxohexahydroimidazo[1,5-a]pyrazin-2(3H)-yl)methyl)butanoic acid] | – | – | EC50 (HBV; [3]): 0.0056 µM; CC50 at 6 days [1]: 13.2 µM |
| CCOC(=O)C1=C(CN2CCN3C(=S)N(CCC(C)(C)C(=O)O)CC3C2)NC(c2nccs2)=N[C@H]1c1cccc(F)c1C (stereo partly drawn) [Compound 28, 4-(7-(((S)-5-(ethoxycarbonyl)-6-(3-fluoro-2-methylphenyl)-2-(thiazol-2-yl)-3,6-dihydropyrimidin-4-yl)methyl)-3-thioxohexahydroimidazo[1,5-a]pyrazin-2(3H)-yl)-2,2-dimethylbutanoic acid] | – | – | EC50 (HBV; [3]): 0.0058 µM; CC50 at 6 days [1]: 10.9 µM |
| CCOC(=O)C1=C(CN2CCOCC2)NC(c2nccs2)=NC1c1ccc(F)cc1Br (stereo not shown) [Reference 1, GLS4, reference compound] | – | – | Liver AUCinf/Dose ([2]; mice liver, PO): 69.2 ng·kg·h/g/mg; Liver Cmax/Dose ([2]; mice liver, PO): 5.1 kg·ng/mg/mL; IV AUCinf/Dose [2, 4]: 232.5 ng·kg·h/mg/mL; IV Cl [2, 4]: 73.9 mL/min/kg; PO AUCinf/Dose ([2]; mice plasma, PO): 17.3 ng·kg·h/mg/mL; PO Cmax ([2]; mice plasma, PO, dose per compound in table (5.28-9.95 mg/kg)): 14.5 ng/mL; F ([2]; mice, PO vs IV): 7.5%; T½ (human hepatocytes; 1.0 μM, 0-120 min): 15.3 min; Clint (liver) (human hepatocytes; scale-up intrinsic clearance, scaling factor 2544.3): 115.3 mL/min/kg |
